Data reported in patent US20250346616A1 (DIZAL (JIANGSU) PHARMACEUTICAL CO., LTD., priority 2022, published 2025).
pIC50: −log10 of the molar value.

What was measured:
[1] = biological target: Recombinant ROCK1 (Homo sapiens (Human), UniProt Q13464); experiment: Lance Ultra Kinase Assay, ROCK1 inhibition; assay type: biochemical; conditions: ATP at Km, 30 min pre-incubation, 1 h reaction
Experimental: The inhibition potency of compounds against these enzymes was assessed using Lance Ultra Kinase Assay. In brief, recombinant kinases were pre-incubated in the presence or absence of compound at room temperature for 30 minutes. The reaction was initiated by the addition of the ATP (Km) and substrate peptide which could be phosphorylated by kinases in the reaction. After 1 h incubation, the reaction was stopped by the addition of the detection reagent mix containing EDTA. The fluorescence was measured at 615 nm and 665 nm, respectively with excitation wavelength at 320 nm. The calculated signal ratio of 665 nm/615 nm is proportional to the kinase activity.

[2] = biological target: Recombinant ROCK2 (Homo sapiens (Human), UniProt O75116); experiment: Lance Ultra Kinase Assay, ROCK2 inhibition; assay type: biochemical; conditions: ATP at Km, 30 min pre-incubation, 1 h reaction
Recombinant ROCK2, sequence (O75116 whole entry): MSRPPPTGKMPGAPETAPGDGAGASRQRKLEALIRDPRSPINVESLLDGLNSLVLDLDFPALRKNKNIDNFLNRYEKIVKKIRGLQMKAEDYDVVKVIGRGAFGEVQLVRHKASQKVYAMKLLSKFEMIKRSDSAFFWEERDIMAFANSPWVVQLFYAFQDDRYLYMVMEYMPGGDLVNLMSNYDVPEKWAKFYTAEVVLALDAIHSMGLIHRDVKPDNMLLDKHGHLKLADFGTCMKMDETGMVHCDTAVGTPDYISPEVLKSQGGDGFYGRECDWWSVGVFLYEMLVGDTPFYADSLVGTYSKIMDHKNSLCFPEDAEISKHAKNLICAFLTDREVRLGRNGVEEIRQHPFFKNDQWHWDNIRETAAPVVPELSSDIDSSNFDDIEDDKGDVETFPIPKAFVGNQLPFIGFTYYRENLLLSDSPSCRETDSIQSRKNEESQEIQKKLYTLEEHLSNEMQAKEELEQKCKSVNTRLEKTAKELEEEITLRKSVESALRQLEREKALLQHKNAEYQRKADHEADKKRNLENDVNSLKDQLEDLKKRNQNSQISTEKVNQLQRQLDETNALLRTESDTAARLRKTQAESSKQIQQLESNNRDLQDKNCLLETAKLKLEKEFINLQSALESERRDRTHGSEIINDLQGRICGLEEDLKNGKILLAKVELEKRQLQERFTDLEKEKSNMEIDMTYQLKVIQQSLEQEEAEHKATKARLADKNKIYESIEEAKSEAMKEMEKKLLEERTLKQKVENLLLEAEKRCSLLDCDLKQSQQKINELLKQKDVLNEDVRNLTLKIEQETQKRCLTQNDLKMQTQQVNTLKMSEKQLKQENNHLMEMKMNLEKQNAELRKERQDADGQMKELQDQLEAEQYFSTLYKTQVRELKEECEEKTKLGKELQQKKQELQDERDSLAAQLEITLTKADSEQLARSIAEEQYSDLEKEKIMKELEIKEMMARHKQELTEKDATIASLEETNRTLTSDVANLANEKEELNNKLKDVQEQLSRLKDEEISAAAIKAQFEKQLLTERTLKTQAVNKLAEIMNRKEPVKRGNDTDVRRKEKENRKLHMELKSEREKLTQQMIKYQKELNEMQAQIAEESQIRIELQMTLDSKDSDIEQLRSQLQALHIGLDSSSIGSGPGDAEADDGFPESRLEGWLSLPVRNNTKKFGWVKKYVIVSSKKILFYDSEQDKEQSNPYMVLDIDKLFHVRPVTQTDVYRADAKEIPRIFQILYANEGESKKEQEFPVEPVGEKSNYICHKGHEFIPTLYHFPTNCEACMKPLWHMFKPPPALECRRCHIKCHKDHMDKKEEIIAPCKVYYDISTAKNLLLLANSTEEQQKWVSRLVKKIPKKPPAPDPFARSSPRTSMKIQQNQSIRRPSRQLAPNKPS

[3] = system: pMLC2; experiment: Cellular PD assay, pMLC2 in PASMC (western blot); assay type: cell-based; conditions: Human Pulmonary Artery Smooth Muscle Cells, 30 min incubation
Experimental: (§1) PASMC (Human Pulmonary Artery Smooth Muscle Cells) were grown in Smooth Muscle Cell Growth medium (Promocell #C-22162). The cells were resuspended at 3×10^5 cells per well in 6-well plate in Smooth Muscle Cell Growth medium (Promocell #C-22162) and incubated compound concentration range: (10000/1111/333/111/37/12.3/4.1/0.41/0 nM) for 30 min.
(§2) Cells were then placed on ice and washed with ice-cold PBS. Cell lysates were prepared with 2×SDS. Separate proteins by SDS-PAGE 2 hr, transfer of proteins form gel to membrane 90 min, Blocking the membrane with 5% milk 1 hr and incubation in primary antibody overnight at 4° C., Incubate the membrane in HRP-conjugated secondary antibody diluted in blocking buffer (1:2000) for 1 hour at room temperature. Detection using Amersham ECL plus western blotting detection system (LAS4000). The purified product was analysed by SDS PAGE and the amount of target protein calculated by gray scanning by Multi-Gauge V3.0 software.

[4] = system: pMYPT1; experiment: Cellular PD assay, pMYPT1 in PASMC (western blot); assay type: cell-based; conditions: Human Pulmonary Artery Smooth Muscle Cells, 30 min incubation
Experimental: as §1, §2

[5] = system: HepG2 cells; experiment: Cell-based phospholipidosis assay (LipidTOX Red); conditions: Homo sapiens, 24 h, LipidTOX Red dye
Experimental: HepG2 cells were dispensed into Collagen I-coated 96-well black wall/clear bottom assay plates at 5000 cells/90 μL/well.
The assay plates were then incubated at 37° C. for 24 h, […] of 8% paraformaldehyde (4% final) fixative solution containing 8 μg/ml Hoechst 33342 (4 ug/mL final) in DPBS was added to each well. After incubation at room temperature for 25 min, the assay plates were washed with DPBS. The assay plates were sealed and stored at 4° C. before imaging.
The fluorescence intensities (595 nm excitation, 615 nm emission for LipidTOX Red; 352 nm excitation, 461 nm emission for Hoechst 33342) were measured using an High Content Screening System (Operetta, PerkinElmer) with a 10×Fluor objective. […] Average intensities were subjected to Prism and EC50 were calculated.

Recombinant ROCK1, sequence (Q13464 whole entry): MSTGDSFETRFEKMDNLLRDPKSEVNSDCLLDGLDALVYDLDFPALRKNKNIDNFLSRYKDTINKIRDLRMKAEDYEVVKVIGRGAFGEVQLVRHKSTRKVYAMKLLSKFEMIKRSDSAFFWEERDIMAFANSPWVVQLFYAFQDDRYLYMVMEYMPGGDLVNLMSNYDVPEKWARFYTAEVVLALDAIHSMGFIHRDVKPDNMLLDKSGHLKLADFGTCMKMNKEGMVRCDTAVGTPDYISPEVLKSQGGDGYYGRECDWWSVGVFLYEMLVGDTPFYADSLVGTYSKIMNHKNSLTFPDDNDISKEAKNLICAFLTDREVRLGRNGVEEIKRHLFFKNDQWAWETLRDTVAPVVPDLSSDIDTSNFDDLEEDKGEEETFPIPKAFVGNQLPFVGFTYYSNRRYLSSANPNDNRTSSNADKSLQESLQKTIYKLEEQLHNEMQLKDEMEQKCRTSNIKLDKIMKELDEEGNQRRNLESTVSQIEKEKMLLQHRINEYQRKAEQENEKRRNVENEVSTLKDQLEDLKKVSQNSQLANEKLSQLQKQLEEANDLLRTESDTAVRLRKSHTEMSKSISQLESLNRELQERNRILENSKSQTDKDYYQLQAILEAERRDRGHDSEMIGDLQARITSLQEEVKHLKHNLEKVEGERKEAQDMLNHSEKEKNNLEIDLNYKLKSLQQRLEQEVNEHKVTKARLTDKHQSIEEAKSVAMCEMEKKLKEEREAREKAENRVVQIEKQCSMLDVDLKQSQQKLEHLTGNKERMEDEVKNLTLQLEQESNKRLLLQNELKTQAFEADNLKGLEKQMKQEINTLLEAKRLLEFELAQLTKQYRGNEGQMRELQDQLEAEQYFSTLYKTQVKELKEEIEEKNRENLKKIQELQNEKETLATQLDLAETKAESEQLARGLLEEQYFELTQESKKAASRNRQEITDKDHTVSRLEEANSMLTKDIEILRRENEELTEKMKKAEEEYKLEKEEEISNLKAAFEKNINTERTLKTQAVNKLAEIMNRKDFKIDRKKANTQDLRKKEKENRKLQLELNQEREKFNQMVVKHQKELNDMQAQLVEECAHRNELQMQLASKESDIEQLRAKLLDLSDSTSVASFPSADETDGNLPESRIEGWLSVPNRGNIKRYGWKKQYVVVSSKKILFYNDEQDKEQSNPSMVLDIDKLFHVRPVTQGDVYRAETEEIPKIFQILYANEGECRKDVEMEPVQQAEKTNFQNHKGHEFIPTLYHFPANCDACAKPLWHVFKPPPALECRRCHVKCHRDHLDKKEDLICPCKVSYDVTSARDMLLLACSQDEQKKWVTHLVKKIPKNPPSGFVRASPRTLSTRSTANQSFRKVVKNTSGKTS

| Structure (SMILES) | pIC50 [1] | pIC50 [2] | IC50 ([3]; PASMC, 0.5 h) [nM] | IC50 ([4]; PASMC, 0.5 h) [nM] | EC50 [5] [µM] | IC50 [3] [nM] | IC50 [4] [nM] |
| --- | --- | --- | --- | --- | --- | --- | --- |
| CN1CCC(C(C(=O)Nc2cccc3c(-c4cn[nH]c4)c[nH]c23)c2ccccc2)CC1 (racemic) [Example 43, N-(3-(1H-pyrazol-4-yl)-1H-indol-7-yl)-2-(1-methylpiperidin-4-yl)-2-phenylacetamide] | 8.89 | 9.18 | 102 | 18 |  |  |  |
| Cc1ccc(C(=O)OCc2ccc([C@@H](CN)C(=O)Nc3ccc4cnccc4c3)cc2)c(C)c1 [Netarsudil] |  |  |  |  | 0.89 |  |  |
| NC[C@@H](C(=O)Nc1cccc2c(-c3cn[nH]c3)c[nH]c12)c1ccc(COC(=O)CCCCCO[N+](=O)[O-])cc1 [Example 10, [4-[(1S)-1-(aminomethyl)-2-oxo-2-[[3-(1H-pyrazol-4-yl)-1H-indol-7-yl]amino]ethyl]phenyl]methyl 6-nitrooxyhexanoate] | 8.80 |  | 8.1 | 10 | > 66.6 |  |  |
| N#Cc1cccc(C(CN)C(=O)Nc2cccc3c(-c4cn[nH]c4)c[nH]c23)c1 (racemic) [Example 19, N-(3-(1H-pyrazol-4-yl)-1H-indol-7-yl)-3-amino-2-(3-cyanophenyl)propanamide] | 8.66 | 9.04 |  |  | > 50 |  |  |
| NCC(C(=O)Nc1cccc2c(-c3cn[nH]c3)c[nH]c12)c1ccc(CO)nc1 (single isomer, unassigned) [Example 60, N-(3-(1H-pyrazol-4-yl)-1H-indol-7-yl)-3-amino-2-(6-(hydroxymethyl)pyridin-3-yl)propanamide] | 8.64 | 9.15 |  |  | > 50 |  |  |
| NC[C@@H](NC(=O)c1cccc2c(-c3cn[nH]c3)n[nH]c12)c1ccccc1 [Example 135, N-[(1S)-2-amino-1-phenyl-ethyl]-3-(1H-pyrazol-4-yl)-1H-indazole-7-carboxamide] | 8.35 | 8.92 | 1.3 | 26 |  |  |  |
| COc1cccc(C(CN)NC(=O)c2cccc3c(-c4cn[nH]c4)c[nH]c23)c1 (single isomer, unassigned) [Example 136, N-(2-amino-1-(3-methoxyphenyl)ethyl)-3-(1H-pyrazol-4-yl)-1H-indole-7-carboxamide] | 9.21 | 9.62 | 5.1 | 1.9 |  |  |  |
| NCCN1CCN(C(C(=O)Nc2cccc3c(-c4cn[nH]c4)c[nH]c23)c2ccccc2)CC1 (racemic) [Example 105, 2-[4-(2-aminoethyl)piperazin-1-yl]-2-phenyl-N-[3-(1H-pyrazol-4-yl)-1H-indol-7-yl]acetamide] | 9.38 | 9.66 | 95 |  | 23.6 |  |  |
| NC[C@@H](C(=O)Nc1ccc2cnccc2c1)c1ccc(CO)cc1 [Netasudil-M1] |  |  |  |  |  | 14 | 22 |
| N[C@H](C(=O)Nc1cccc2c(-c3cn[nH]c3)c[nH]c12)c1ccccc1 [Example 9, (2S)-2-amino-2-phenyl-N-[3-(1H-pyrazol-4-yl)-1H-indol-7-yl]acetamide] | 9.62 |  | 15 | 2.2 |  |  |  |
| COc1cccc(C(CN)C(=O)Nc2ncnc3c(-c4cn[nH]c4)c[nH]c23)c1 (centres unmarked) [Example 154, N-(7-(1H-pyrazol-4-yl)-5H-pyrrolo[3,2-d]pyrimidin-4-yl)-3-amino-2-(3-methoxyphenyl)propanamide] |  |  | 8.3 |  |  |  |  |
| NCC(Cc1ccccc1)C(=O)Nc1cccc2c(-c3cn[nH]c3)c[nH]c12 (racemic) [Example 52, 3-amino-2-benzyl-N-[3-(1H-pyrazol-4-yl)-1H-indol-7-yl]propanamide] | 9.03 | 9.23 | 12 |  |  |  |  |
| CNC(=O)OCc1cccc(C(CN)C(=O)Nc2cccc3c(-c4cn[nH]c4)c[nH]c23)c1 (racemic) [Example 49, 3-(1-((3-(1H-pyrazol-4-yl)-1H-indol-7-yl)amino)-3-amino-1-oxopropan-2-yl)benzyl methylcarbamate] | 9.07 | 9.19 |  |  | > 200 |  |  |
| CN1CCN(CC(C(=O)Nc2cccc3c(-c4cn[nH]c4)c[nH]c23)c2ccccc2)CC1 (racemic) [Example 37, N-(3-(1H-pyrazol-4-yl)-1H-indol-7-yl)-3-(4-methylpiperazin-1-yl)-2-phenylpropanamide] | 9.15 | 9.37 | 8 | 6.2 |  |  |  |
| NC(C(=O)Nc1cccc2c(-c3cn[nH]c3)c[nH]c12)c1ccccc1 (racemic) [Example 7, N-(3-(1H-pyrazol-4-yl)-1H-indol-7-yl)-2-amino-2-phenylacetamide] | 7.47 |  | 13 |  |  |  |  |
| NCC(C(=O)Nc1cccc2c(-c3cn[nH]c3)c[nH]c12)C1CCCCC1 (racemic) [Example 22, 3-amino-2-cyclohexyl-N-[3-(1H-pyrazol-4-yl)-1H-indol-7-yl]propanamide] | 8.96 | 9.06 | 13 | 1.5 |  |  |  |
| NCC(C(=O)Nc1cccc2c(-c3cn[nH]c3)c[nH]c12)C1CCCCC1 (single isomer, unassigned) [Example 23, N-(3-(1H-pyrazol-4-yl)-1H-indol-7-yl)-3-amino-2-cyclohexylpropanamide] | 9.72 | 9.89 | 3.5 | 4.3 |  |  |  |
| CN1CCC(C(C(=O)Nc2cccc3c(-c4cn[nH]c4)c[nH]c23)c2ccccc2)CC1 (single isomer, unassigned) [Example 45, N-(3-(1H-pyrazol-4-yl)-1H-indol-7-yl)-2-(1-methylpiperidin-4-yl)-2-phenylacetamide] | 9.28 | 9.57 | 29 | 11 |  |  |  |
| NCC(C(=O)Nc1cccc2c(-c3cn[nH]c3)c[nH]c12)c1ccc(C(N)=O)cc1 (racemic) [Example 74, 4-(1-((3-(1H-pyrazol-4-yl)-1H-indol-7-yl)amino)-3-amino-1-oxopropan-2-yl)benzamide] | 8.70 | 9.21 |  |  | > 200 |  |  |
| COc1ccc(C(N)C(=O)Nc2cccc3c(-c4cn[nH]c4)c[nH]c23)cc1 (racemic) [Example 104, 2-amino-2-(4-methoxyphenyl)-N-[3-(1H-pyrazol-4-yl)-1H-indol-7-yl]acetamide] | 8.70 | 9.05 |  |  |  |  |  |
| CN1CCN(C[C@@H](C(=O)Nc2cccc3c(-c4cn[nH]c4)c[nH]c23)c2ccccc2)CC1 [Example 40] | 9.48 | 9.74 |  |  |  |  |  |
| NCC(NC(=O)c1cccc2c(-c3cn[nH]c3)c[nH]c12)c1ccc(CO)cc1 (racemic) [Example 146, N-(2-amino-1-(4-(hydroxymethyl)phenyl)ethyl)-3-(1H-pyrazol-4-yl)-1H-indole-7-carboxamide] | 7.74 | 8.31 |  |  |  |  |  |
| CN1CCN(CC(C(=O)Nc2cccc3c(-c4cn[nH]c4)c[nH]c23)c2cccnc2)CC1 (single isomer, unassigned) [Example 67, N-(3-(1H-pyrazol-4-yl)-1H-indol-7-yl)-3-(4-methylpiperazin-1-yl)-2-(pyridin-3-yl)propanamide] | 8.59 | 8.80 |  |  |  |  |  |
| CNC(=O)c1ccc(C(CN)C(=O)Nc2cccc3c(-c4cn[nH]c4)c[nH]c23)cc1 (racemic) [Example 73, 4-(2-amino-1-{[3-(1H-pyrazol-4-yl)-1H-indol-7-yl]carbamoyl}ethyl)-N-methylbenzamide] | 7.09 | 7.70 |  |  |  |  |  |
| N[C@H](C(=O)Nc1cccc2c(-c3cn[nH]c3)c[nH]c12)c1cccnc1 (single isomer, unassigned) [Example 132, N-(3-(1H-pyrazol-4-yl)-1H-indol-7-yl)-2-amino-2-(pyridin-3-yl) acetamide] | 9.12 | 9.41 |  |  |  |  |  |
| NCC(C(=O)Nc1cccc2c(-c3cn[nH]c3)c[nH]c12)C1CCCOC1 (centres unmarked) [Example 91, 3-amino-2-(oxan-3-yl)-N-[3-(1H-pyrazol-4-yl)-1H-indol-7-yl]propanamide] | 8.92 | 9.12 |  |  | 24.4 |  |  |
| NCC(C(=O)Nc1cccc2c(-c3cn[nH]c3)c[nH]c12)c1ccc(N)cc1 (racemic) [Example 80, 3-amino-2-(4-aminophenyl)-N-[3-(1H-pyrazol-4-yl)-1H-indol-7-yl]propanamide] | 9.41 | 9.74 |  |  |  |  |  |
| CC(N)(C(=O)Nc1cccc2c(-c3cn[nH]c3)c[nH]c12)c1ccccc1 (racemic) [Example 107, 2-amino-2-phenyl-N-[3-(1H-pyrazol-4-yl)-1H-indol-7-yl]propanamide] | 8.22 | 8.43 |  |  |  |  |  |
| NCC(C(=O)Nc1cccc2c(-c3cn[nH]c3)c[nH]c12)c1cccnc1 (racemic) [Example 31, N-(3-(1H-pyrazol-4-yl)-1H-indol-7-yl)-3-amino-2-(pyridin-3-yl)propanamide] | 8.92 | 9.32 | 31 |  | > 50 |  |  |
